Measurements: patent US11578061B2, “Inhibitors of LRRK2 kinase” (Halia Therapeutics, Inc., priority 2021, dated 2023)

The compounds below were run against recombinant human LRRK2 (catalytic domain only [amino acids 970-2527], GST-tagged) (Homo sapiens (Human), UniProt Q5S007) (assay: LRRK2 Enzymatic Assay). Details: LRRKtide substrate, [32P]-ATP.
Sequence of recombinant human LRRK2 (catalytic domain only [amino acids 970-2527], GST-tagged) (Q5S007 970-2527): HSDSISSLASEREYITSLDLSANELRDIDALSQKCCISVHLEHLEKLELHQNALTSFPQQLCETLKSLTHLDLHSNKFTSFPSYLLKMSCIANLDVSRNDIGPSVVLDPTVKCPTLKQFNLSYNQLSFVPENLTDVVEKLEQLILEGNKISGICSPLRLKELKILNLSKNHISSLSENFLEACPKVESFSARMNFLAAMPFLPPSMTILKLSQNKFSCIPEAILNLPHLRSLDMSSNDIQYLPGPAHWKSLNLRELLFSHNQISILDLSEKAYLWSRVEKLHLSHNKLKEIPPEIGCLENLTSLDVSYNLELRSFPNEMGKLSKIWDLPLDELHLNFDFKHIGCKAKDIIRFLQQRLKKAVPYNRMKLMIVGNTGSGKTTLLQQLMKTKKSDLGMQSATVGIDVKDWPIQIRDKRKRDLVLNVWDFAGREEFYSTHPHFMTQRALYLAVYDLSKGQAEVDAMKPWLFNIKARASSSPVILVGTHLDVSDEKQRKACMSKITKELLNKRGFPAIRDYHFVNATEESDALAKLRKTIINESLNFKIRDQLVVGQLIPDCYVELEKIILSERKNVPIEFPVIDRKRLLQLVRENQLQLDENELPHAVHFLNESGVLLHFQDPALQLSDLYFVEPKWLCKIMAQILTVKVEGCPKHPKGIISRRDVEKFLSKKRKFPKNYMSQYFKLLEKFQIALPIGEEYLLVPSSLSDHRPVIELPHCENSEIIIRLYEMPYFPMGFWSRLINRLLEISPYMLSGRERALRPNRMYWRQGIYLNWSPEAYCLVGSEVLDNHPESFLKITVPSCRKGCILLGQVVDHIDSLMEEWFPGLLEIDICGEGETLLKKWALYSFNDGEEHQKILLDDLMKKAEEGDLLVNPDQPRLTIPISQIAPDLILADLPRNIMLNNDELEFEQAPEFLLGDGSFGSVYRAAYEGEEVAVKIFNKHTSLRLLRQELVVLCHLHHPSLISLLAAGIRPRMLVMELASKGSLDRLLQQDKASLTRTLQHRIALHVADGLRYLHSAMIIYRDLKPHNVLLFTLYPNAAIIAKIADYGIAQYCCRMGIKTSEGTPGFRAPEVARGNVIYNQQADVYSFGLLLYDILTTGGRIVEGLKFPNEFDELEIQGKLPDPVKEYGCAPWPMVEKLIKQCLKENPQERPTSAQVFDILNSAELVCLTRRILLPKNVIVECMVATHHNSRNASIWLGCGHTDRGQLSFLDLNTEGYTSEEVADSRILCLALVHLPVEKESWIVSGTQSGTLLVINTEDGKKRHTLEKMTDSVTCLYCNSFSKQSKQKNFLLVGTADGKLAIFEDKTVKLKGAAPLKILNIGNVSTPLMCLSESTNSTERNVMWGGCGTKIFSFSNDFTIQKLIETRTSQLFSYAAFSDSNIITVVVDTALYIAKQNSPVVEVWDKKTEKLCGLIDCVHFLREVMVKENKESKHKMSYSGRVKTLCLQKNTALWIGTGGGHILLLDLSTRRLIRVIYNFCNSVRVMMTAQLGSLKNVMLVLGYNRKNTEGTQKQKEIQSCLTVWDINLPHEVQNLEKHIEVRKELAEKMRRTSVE
Format: biochemical
Description: LRRKtide substrate (peptide sequence RLGRDKYKTLRQIRQ, derived from human ezrin [amino acids 561-573], moesin [amino acids 539-553] and radixin [amino acids 558-570], obtained from SignalChem, catalogue #L10-58, reconstituted in 20 mM Tris-HCl at pH 7.5 to a final concentration of 1 mg/mL, assay concentration 20 μM) and recombinant human LRRK2 (catalytic domain only [amino acids 970-2527], GST-tagged, expressed in insect cells, obtained from ThermoFisher Scientific, catalogue #PV4874, 0.35 mg/mL, assay concentration 30 nM) were mixed in assay buffer (20 mM Hepes pH 7.5, 10 mM MgCl2, 1 mM EGTA, 0.02% Brij35, 0.02 mg/ml BSA, 0.1 mM Na3VO4, 2 mM DTT, 1% DMSO). Compounds of interest (in DMSO, serial 3-fold dilution from 10 μM to 0.5 nM) or control (1% DMSO) were dispensed into the kinase reaction mixture by Acoustic technology (Echo550; nanoliter range). After incubation at room temperature for 20 minutes, the kinase reaction was initiated by addition of [^32P]-ATP (Specific activity 10 μCi/μl) and the mixture was incubated at room temperature for 2 hours. The reaction was then stopped by spotting the reaction mixture on strips of phosphocellulose P81 paper. Following washing, the radioactivity of the P81 paper was measured and kinase activity data were expressed as the percent remaining kinase activity in test samples compared to vehicle (dimethyl sulfoxide) reactions. IC50 values and curve fits were obtained using Prism (GraphPad Software).
`CN1CCC(F)(COc2nc(Nc3ccc(N4CCOCC4)cc3)ncc2F)CC1` [Example 64, 5-fluoro-4-((4-fluoro-1-methylpiperidin-4-yl)methoxy)-N-(4-morpholinophenyl)py-rimidin-2-amine] was tested, and the IC50 was > 400 nM. For `CC(=O)N[C@H]1CC[C@H](COc2nc(Nc3cn(C(C)C)nc3C)ncc2F)CC1` [Example 195, N-((1R,4R)-4-(((5-fluoro-2-((1-isopropyl-3-methyl-1H-pyrazol-4-yl)amino)pyrimidin-4-yl)oxy)methyl)cyclo-hexyl)acetamide], the IC50 was < 50 nM. In the case of `CC(=O)N[C@H]1C[C@H](COc2ccnc(Nc3ccc(N4CCOCC4)cc3)n2)C1` [Example 94, N-((1R,3R)-3-(((2-((4-morpholinophenyl)amino)pyrimidin-4-yl)oxy)methyl)cyclo-butyl)acetamide], the IC50 is reported as > 400 nM. `Cn1cc(Nc2ncc(F)c(OC[C@H]3CC[C@H](O)CC3)n2)c(Cl)n1` [Example 237, (1R,4R)-4-(((2-((3-chloro-1-methyl-1H-pyrazol-4-yl)amino)-5-fluoropyrimidin-4-yl)oxy)methyl)cyclohexan-1-ol] showed an IC50 of 50 to 200 nM. With `CC(=O)N[C@H]1CC[C@H](COc2nc(Nc3cn(C(C)(C)C#N)nc3C)ncc2C)CC1` [Example 87, N-((1R,4R)-4-(((2-((1-(2-cyanopropan-2-yl)-3-methyl-1H-pyrazol-4-yl)amino)-5-methylpyrimidin-4-yl)oxy)methyl)cyclo-hexyl)acetamide] the IC50 was < 50 nM. `Cn1ccc(Nc2nccc(OC[C@H]3CC[C@@H](N)CC3)n2)n1` [Example 3, 4-(((1S,4S)-4-aminocyclohexyl)methoxy)-N-(1-methyl-1H-pyrazol-3-yl) pyrimidin-2-amine] was tested, and the IC50 was 50 to 200 nM. In the case of `CN[C@H]1CC[C@H](COc2nc(Nc3cn(C4CC(C#N)C4)nc3C)ncc2Cl)CC1` (stereo partly drawn) [Example 40, 3-(4-((5-chloro-4-(((1R,4R)-4-(methylamino)cyclo-hexyl)methoxy)py-rimidin-2-yl)amino)-3-methyl-1H-pyrazol-1-yl)cyclobutane-1-carbonitrile], the IC50 is reported as < 50 nM. For `CC(=O)N[C@H]1CC[C@H](COc2nc(Nc3cnn(CCO)c3Cl)ncc2F)CC1` [Example 204, N-((1R,4R)-4-(((2-((5-chloro-1-(2-hydroxyethyl)-1H-pyrazol-4-yl)amino)-5-fluoropyrimidin-4-yl)oxy)methyl)cyclo-hexyl)acetamide], the IC50 was < 50 nM. For `CC(=O)N[C@H]1CC[C@H](COc2nc(Nc3cn(C(C)(C)C#N)nc3C)ncc2F)CC1` [Example 84, N-((1R,4R)-4-(((2-((1-(2-cyanopropan-2-yl)-3-methyl-1H-pyrazol-4-yl)amino)-5-fluoropyrimidin-4-yl)oxy)methyl)cyclo-hexyl)acetamide], the IC50 was < 50 nM. For `Cc1nn(C2CC(C#N)C2)cc1Nc1ncc(Cl)c(OCC2(F)CN(C)C2)n1` (stereo not drawn) [Example 69, 3-(4-((5-chloro-4-((3-fluoro-1-methylazetidin-3-yl)methoxy)pyrimidin-2-yl)amino)-3-methyl-1H-pyrazol-1-yl)cyclobutane-1-carbonitrile], the IC50 was > 400 nM. `COc1nn(C2CC2)cc1Nc1ncc(F)c(OC[C@H]2CC[C@H](O)CC2)n1` [Example 245, (1R,4R)-4-(((2-((1-cyclopropyl-3-methoxy-1H-pyrazol-4-yl)amino)-5-fluoropyrimidin-4-yl)oxy)methyl)cyclohexan-1-ol] showed an IC50 of 200 to 400 nM. With `Cc1nn(C(C)(C)C#N)cc1Nc1ncc(Cl)c(OCC2CN(C)C2)n1` [Example 68, 2-(4-((5-chloro-4-((1-methylazetidin-3-yl)methoxy)pyrimidin-2-yl)amino)-3-methyl-1H-pyrazol-1-yl)-2-methylpropanenitrile] the IC50 was > 400 nM. For `CC(=O)NC1CCC(C)(COc2ccnc(Nc3ccc(N4C[C@@H](C)O[C@@H](C)C4)cc3)n2)CC1` (stereo partly drawn) [Example 90, N-(4-(((2-((4-((2S,6R)-2,6-dimethylmorpholino)phenyl)amino)py-rimidin-4-yl)oxy)methyl)-4-methylcyclohexyl) acetamide], the IC50 was > 400 nM. For `Cc1nc(Nc2ccc(N3C[C@@H](C)O[C@@H](C)C3)cc2)nc(OC[C@H]2CC[C@H](O)CC2)c1F` [Example 266, (1R,4R)-4-(((2-((4-((2S,6R)-2,6-dimethylmorpholino)phenyl)amino)-5-fluoro-6-methylpyrimidin-4-yl)oxy)methyl)cyclohexan-1-ol], the IC50 was > 400 nM. With `C[C@@H]1CN(c2ccc(Nc3nc(Cl)c(F)c(OC[C@H]4CC[C@H](O)CC4)n3)cc2)C[C@H](C)O1` [Example 247, (1R,4R)-4-(((6-chloro-2-((4-((2S,6R)-2,6-dimethylmorpholino)phenyl)amino)-5-fluoropyrimidin-4-yl)oxy)methyl)cyclohexan-1-ol] the IC50 was > 400 nM. In the case of `Cc1nn(C(C)(C)C#N)cc1Nc1ncc(Cl)c(OCC2CC(F)(F)C2)n1` [Example 154, 2-(4-((5-chloro-4-((3,3-difluorocyclobutyl)methoxy)pyrimidin-2-yl)amino)-3-methyl-1H-pyrazol-1-yl)-2-methylpropanenitrile], the IC50 is reported as < 50 nM. In the case of `CN[C@H]1CC[C@@H](COc2nc(Nc3cnn(C4CC(C#N)C4)c3C)ncc2Cl)C1` (stereo partly drawn) [Example 52, 3-(4-((5-chloro-4-(((1R,3S)-3-(methylamino)cyclo-pentyl)methoxy)py-rimidin-2-yl)amino)-5-methyl-1H-pyrazol-1-yl)cyclobutane-1-carbonitrile], the IC50 is reported as < 50 nM. Compound `COc1nn(C(C)C)cc1Nc1ncc(F)c(OC[C@H]2CC[C@H](NC(C)=O)CC2)n1` [Example 207, N-((1R,4R)-4-(((5-fluoro-2-((1-isopropyl-3-methoxy-1H-pyrazol-4-yl)amino)pyrimidin-4-yl)oxy)methyl)cyclo-hexyl)acetamide] has an IC50 of 50 to 200 nM. For `CC(=O)N1CC2(CC(COc3nc(Nc4ccc(N5C[C@@H](C)O[C@@H](C)C5)cc4)ncc3F)C2)C1` [Example 97], the IC50 was > 400 nM. `Cc1nn(C(C)(C)C#N)cc1Nc1ncc(Cl)c(OCC2CC(C)OC(C)C2)n1` (stereo not drawn) [Example 149, 2-(4-((5-chloro-4-((2,6-dimethyltetrahydro-2H-pyran-4-yl)methoxy)pyrimidin-2-yl)amino)-3-methyl-1H-pyrazol-1-yl)-2-methylpropanenitrile] was tested, and the IC50 was < 50 nM. In the case of `CN[C@H]1CC[C@H](COc2nc(Nc3ccc(N4CCOCC4)cc3)ncc2C2CC2)CC1` [Example 45, 5-cyclopropyl-4-(((1R,4R)-4-(methylamino)cyclo-hexyl)methoxy)-N-(4-morpholinophenyl) pyrimidin-2-amine], the IC50 is reported as 50 to 200 nM. `CC(=O)N[C@H]1CC[C@H](COc2nc(Nc3cn(C(F)F)nc3C)ncc2F)CC1` [Example 197, N-((1R,4R)-4-(((2-((1-(difluoromethyl)-3-methyl-1H-pyrazol-4-yl)amino)-5-fluoropyrimidin-4-yl)oxy)methyl)cyclo-hexyl)acetamide] gave an IC50 of 50 to 200 nM. `CN[C@H]1CC[C@H](COc2nc(Nc3cn(C(C)(C)C#N)nc3C)ncc2OC)CC1` [Example 37, 2-(4-((5-methoxy-4-(((1R,4R)-4-(methylamino)cyclo-hexyl)methoxy)py-rimidin-2-yl)amino)-3-methyl-1H-pyrazol-1-yl)-2-methylpropanenitrile] was tested, and the IC50 was < 50 nM. `CN[C@H]1CC[C@H](COc2nc(Nc3cn(C(C)(C)C#N)nc3C)ncc2F)CC1` [Example 43, 2-(4-((5-fluoro-4-(((1R,4R)-4-(methylamino)cyclo-hexyl)methoxy)py-rimidin-2-yl)amino)-3-methyl-1H-pyrazol-1-yl)-2-methylpropanenitrile] was tested, and the IC50 was < 50 nM. With `CNC[C@H]1CC[C@H](COc2nc(Nc3ccc(N4CCOCC4)cc3)ncc2Cl)CC1` [Example 49, 5-chloro-4-(((1R,4R)-4-((methylamino)methyl)cyclohexyl)methoxy)-N-(4-morpholinophenyl)py-rimidin-2-amine] the IC50 was < 50 nM. `Cn1ccc(Nc2nccc(OC[C@H]3CC[C@H](N)CC3)n2)n1` [Example 4, 4-(((1R,4R)-4-aminocyclohexyl)methoxy)-N-(1-methyl-1H-pyrazol-3-yl)pyrimidin-2-amine] showed an IC50 of 50 to 200 nM. For `CC(=O)N[C@H]1CC[C@H](COc2ccnc(Nc3ccc(N4C[C@@H](C)O[C@@H](C)C4)cc3)n2)CC1` [Example 73, N-((1R,4R)-4-(((2-((4-((2R,6S)-2,6-dimethylmorpholino)phenyl)amino)pyrimidin-4-yl)oxy)methyl)cyclo-hexyl)acetamide], the IC50 was 50 to 200 nM. With `N[C@H]1CC[C@H](COc2nc(Nc3ccc(N4CCOCC4)cc3)ncc2C(F)(F)F)CC1` [Example 7, 4-(((1R,4R)-4-aminocyclohexyl)methoxy)-N-(4-morpholinophenyl)-5-(trifluoromethyl) pyrimidin-2-amine] the IC50 was > 400 nM. In the case of `CC(=O)N[C@H]1CC[C@H](COc2nc(Nc3cnn(C(F)(F)F)c3)ncc2F)CC1` [Example 187, N-((1R,4R)-4-(((5-fluoro-2-((1-(trifluoromethyl)-1H-pyrazol-4-yl)amino)pyrimidin-4-yl)oxy)methyl)cyclo-hexyl)acetamide], the IC50 is reported as 200 to 400 nM. In the case of `Cc1nn(C(C)(C)C#N)cc1Nc1nc(C)c(F)c(OC[C@H]2CC[C@H](O)CC2)n1` [Example 267, 2-(4-((5-fluoro-4-(((1R,4R)-4-hydroxycyclohexyl)methoxy)-6-methylpyrimidin-2-yl)amino)-3-methyl-1H-pyrazol-1-yl)-2-methylpropanenitrile], the IC50 is reported as > 400 nM.
